Source: patent US20040097574A1, “Glucocorticoid mimetics, methods of making them, pharmaceutical compositions, and uses thereof” (Boehringer Ingelheim Pharmaceuticals, Inc., priority 2002, published 2004)
pIC50: −log10 of the molar value.

Legend:
[1] = target: T1, human glucocorticoid receptor (GR) complex (Homo sapiens, UniProt P04150); assay: Glucocorticoid receptor competitive binding assay (fluorescence polarization); settings: competition with TAMRA-labeled dexamethasone; read-out: potent activity in the GR binding assay (IC50)
T1 construct: made in house; host or cells: insect expression system (baculovirus lysate)
T1 sequence (P04150 1-777): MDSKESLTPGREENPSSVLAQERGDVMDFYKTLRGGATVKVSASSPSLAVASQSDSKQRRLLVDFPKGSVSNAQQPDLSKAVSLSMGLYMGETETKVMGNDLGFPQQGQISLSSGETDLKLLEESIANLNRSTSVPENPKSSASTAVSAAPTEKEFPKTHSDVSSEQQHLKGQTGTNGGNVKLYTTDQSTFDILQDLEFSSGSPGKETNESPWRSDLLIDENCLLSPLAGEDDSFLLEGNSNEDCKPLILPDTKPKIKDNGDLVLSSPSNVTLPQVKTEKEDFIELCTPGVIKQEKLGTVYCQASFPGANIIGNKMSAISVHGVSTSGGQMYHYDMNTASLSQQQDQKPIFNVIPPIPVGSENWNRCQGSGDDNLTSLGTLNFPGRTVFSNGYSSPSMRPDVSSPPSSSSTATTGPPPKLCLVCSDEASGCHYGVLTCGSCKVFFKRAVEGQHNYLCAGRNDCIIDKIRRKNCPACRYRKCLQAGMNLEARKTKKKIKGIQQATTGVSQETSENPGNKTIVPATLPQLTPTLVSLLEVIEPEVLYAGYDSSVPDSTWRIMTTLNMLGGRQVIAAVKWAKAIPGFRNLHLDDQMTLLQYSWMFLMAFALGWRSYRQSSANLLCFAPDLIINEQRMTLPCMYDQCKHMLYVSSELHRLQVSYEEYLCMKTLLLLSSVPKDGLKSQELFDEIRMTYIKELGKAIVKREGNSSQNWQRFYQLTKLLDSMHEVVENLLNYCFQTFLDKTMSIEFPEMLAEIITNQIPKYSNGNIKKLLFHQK
Protocol: Compounds of the invention were evaluated for binding to the steroid receptor by a fluorescence polarization competitive binding assay. Detailed descriptions for preparation of recombinant glucocorticoid receptor (GR) complex used in the assay is described in U.S. Patent Application Publication No. US 2003/0017503, filed May 20, 2002, and the corresponding U.S. provisional application No. 60/291,877, filed May 18, 2001, each of which is incorporated herein by reference in its entirety. Preparation of the tetramethyl rhodamine (TAMRA)-labeled dexamethasone probe was accomplished using a standard literature procedure (M. Pons et al., J. Steroid Biochem., 1985, 22, pp. 267-273).
A. Glucocorticoid Receptor Competitive Binding Assay
Step 1. Characterization of the Fluorescent Probe
The wavelengths for maximum excitation and emission of the fluorescent probe should first be measured. An example of such a probe is rhodamine (TAMRA)-labeled dexamethasone.
The affinity of the probe for the steroid receptor was then determined in a titration experiment. The fluorescence polarization value of the probe in assay buffer was measured on an SLM-8100 fluorometer using the excitation and emission maximum values described above. Aliquots of expression vector lysate were added and fluorescence polarization was measured after each addition until no further change in polarization value was observed. Non-linear least squares regression analysis was used to calculate the dissociation constant of the probe from the polarization values obtained for lysate binding to the probe.
Step 2. Screening for Inhibitors of Probe Binding
This assay uses fluorescence polarization (FP) to quantitate the ability of test compounds to compete with tetramethyl rhodamine (TAMRA)-labeled dexamethasone for binding to a human glucocorticoid receptor (GR) complex prepared from an insect expression system. The assay buffer was: 10 mM TES, 50 mM KCl, 20 mM Na2MoO4.2H2O, 1.5 mM EDTA, 0.04% w/v CHAPS, 10% v/v glycerol, 1 mM dithiothreitol, pH 7.4. Test compounds were dissolved to 1 mM in neat DMSO and then further diluted to 10x assay concentration in assay buffer supplemented with 10% v/v DMSO. Test compounds were serially diluted at 10x assay concentrations in 10% DMSO-containing buffer in 96-well polypropylene plates. Binding reaction mixtures were prepared in 96-well black Dynex microtiter plates by sequential addition of the following assay components to each well: 15 μL of 10x test compound solution, 85 μL of GR-containing baculovirus lysate diluted 1:170 in assay buffer, and 50 μL of 15 nM TAMRA-labeled dexamethasone. Positive controls were reaction mixtures containing no test compound; negative controls (blanks) were reaction mixtures containing 0.7 μM to 2 μM dexamethasone. The binding reactions were incubated for 1 hour at room temperature and then read for fluorescence polarization in the LJL Analyst set to 550 nm excitation and 580 nm emission, with the Rhodamine 561 dichroic mirror installed. IC50 values were determined by iterative non-linear curve fitting of the FP signal data to a 4-parameter logistic equation.

[2] = tested on: glucocorticoid receptor function; assay: Glucocorticoid receptor function, one or more of the above assays (agonist/antagonist/modulator activity); assay type: cell-based; settings: in one or more of the above assays
Protocol: B. Glucocorticoid Receptor Cell Assays
1. Induction of Aromatase in Fibroblasts (Cell Assay for Transactivation)
Dexamethasone, a synthetic ligand to the glucocorticoid receptor (GR), induces expression of aromatase in human foreskin fibroblast cells. The activity of aromatase is measured by the conversion of testosterone to estradiol in culture media.
On the day of the experiment, the media in the wells is replaced with fresh media. Cells are treated with test compounds to final concentrations of 10^−5 M to 10^−8 M, and testosterone to a final concentration of 300 ng/mL. Each well has a total volume of 100 μL. Samples are made in duplicates. Control wells include: (a) wells that receive testosterone only, and (b) wells that receive testosterone plus 2 μM of dexamethasone to provide maximum induction of aromatase. Plates are incubated at 37° C. overnight (15 to 18 hours), and supernatants are harvested at the end of incubation. […] The amount of estradiol is inversely proportional to the ELISA signals in each well. The extent of aromatase induction by test compounds is expressed as a relative percentage to dexamethasone. EC50 values of test compounds are derived by non-linear curve fitting.
2. Inhibition of IL-6 Production in Fibroblasts (Cell Assay for Transrepression)
Human foreskin fibroblast cells produce IL-6 in response to stimulation by pro-inflammatory cytokine IL-1.
On the next day, media in the wells is replaced with fresh media. Cells are treated with IL-1 (rhIL-1α, R&D Systems Cat. No. 200-LA) to a final concentration of 1 ng/mL, and with test compounds to final concentrations of 10^−5 M to 10^−8 M, in a total volume of 200 μL per well. Samples are done in duplicates. […] Positive control wells receive IL-1 only and represent maximum (or 100%) amount of IL-6 production. Plates are incubated at 37° C. overnight (15 to 18 hours), and supernatants are harvested at the end of incubation. IL-6 levels in the supernatants are determined by the ELISA kits for IL-6 (MedSystems Diagnostics GmbH, Vienna, Austria, Cat. No. BMS213TEN) according to manufacture's instructions. The extent of inhibition of IL-6 by test compounds is expressed in percentage relative to positive controls. IC50 values of test compounds are derived by non-linear curve fitting.
Evaluation of agonist or antagonist activity of compounds binding to the glucocorticoid receptor may be determined by any of the assays.
3. Modulation of Tyrosine Aminotransferase (TAT) Induction in Rat Hepatoma Cells
Testing of compounds for agonist or antagonist activity in induction of tyrosine aminotransferase (TAT) in rat hepatoma cells.
H4-II-E-C3 cells were incubated overnight in 96 well plates (20,000 cells/100 μL/well) in MEM medium containing 10% heat inactivated FBS and 1% nonessential amino acids. On the next day, cells were stimulated with the indicated concentrations of dexamethasone or test compound (dissolved in DMSO, final DMSO concentration 0.2%) for 18 hours. Control cells were treated with 0.2% DMSO. After 18 hours, the cells were lysed in a buffer containing 0.1% Triton X-100 and the TAT activity was measured in a photometric assay using tyrosine and alpha-ketoglutarate as substrates.
For measuring antagonist activity, the hepatoma cells were pre-stimulated by addition of dexamethasone (concentration ranges from 3×10^−9 M to 3×10^−8 M) shortly before the test compound was applied to the cells.
4. Modulation of MMTV-Luc Induction in HeLa Cells
Testing of compounds for agonist or antagonist activity in stimulation of MMTV-(mouse mammary tumor virus) promoter in HeLa cells.
Cells were cultured overnight in DMEM medium without phenol red, supplemented with 3% CCS (charcoal treated calf serum) and then transferred to 96 well plates (15,000 cells/100 μL/well).

Row | Compound | pIC50 [1] | activity as antagonists of the glucocorticoid receptor function [2] | activity as an agonist of the glucocorticoid receptor function [2]
1 | CC(Cc1c[nH]c2ccccc12)NS(=O)(=O)c1c(Cl)sc(Cl)c1Br (centres unmarked) [4-Bromo-2,5-dichlorothiophene-3-sulfonic acid [2-(1H-indol-3-yl)-1-methylethyl]amide] | ≥ 7.00 | activity as antagonists | –
2 | Cc1cc(C)c(S(=O)(=O)NC(C)Cc2c[nH]c3ccccc23)c(C)c1 (centres unmarked) [N-[2-(1H-Indol-3-yl)-1-methylethyl]-2,4,6-trimethylbenzenesulfonamide] | ≥ 7.00 | – | activity as an agonist
3 | CCC(Cc1c[nH]c2ccccc12)NS(=O)(=O)c1c(C)cc(C)cc1C (centres unmarked) [N-[1-(1H-Indol-3-ylmethyl)propyl]-2,4,6-trimethylbenzenesulfonamide] | ≥ 7.00 | – | –
4 | Cc1cccc(Cl)c1S(=O)(=O)NC(C)Cc1c[nH]c2ccccc12 (centres unmarked) [2-Chloro-N-[2-(1H-indol-3-yl)-1-methylethyl]-6-methylbenzenesulfonamide] | – | activity as antagonists | –
5 | Cc1cc(C)c(S(=O)(=O)NC(C)Cc2c[nH]c3ccc(F)cc23)c(C)c1 (centres unmarked) [N-[2-(5-Fluoro-1H-indol-3-yl)-1-methylethyl]-2,4,6-trimethylbenzenesulfonamide] | ≥ 7.00 | – | –
6 | CC(Cc1c[nH]c2ccccc12)NS(=O)(=O)c1c(C(C)C)cc(C(C)C)cc1C(C)C (centres unmarked) [N-[2-(1H-Indol-3-yl)-1-methylethyl]-2,4,6-triisopropylbenzenesulfonamide] | ≥ 7.00 | activity as antagonists | –
7 | CC(Cc1c[nH]c2ccccc12)NS(=O)(=O)c1c(Cl)cccc1Cl (centres unmarked) [2,6-Dichloro-N-[2-(1H-indol-3-yl)-1-methylethyl]benzenesulfonamide] | – | activity as antagonists | –
8 | Cc1cc(C)c(S(=O)(=O)NC(C)Cc2c[nH]c3cc(F)ccc23)c(C)c1 (centres unmarked) [N-[2-(6-Fluoro-1H-indol-3-yl)-1-methylethyl]-2,4,6-trimethylbenzenesulfonamide] | ≥ 7.00 | – | –
9 | CCC(Cc1c[nH]c2ccccc12)NS(=O)(=O)c1c(Cl)cc(Cl)cc1Cl (centres unmarked) [2,4,6-Trichloro-N-[1-(1H-indol-3-ylmethyl)propyl]benzenesulfonamide] | ≥ 7.00 | – | –
10 | CC(Cc1c[nH]c2ccccc12)NS(=O)(=O)c1c(Cl)cc(Cl)cc1Cl (centres unmarked) [2,4,6-Trichloro-N-[2-(1H-indol-3-yl)-1-methylethyl]benzenesulfonamide] | ≥ 7.00 | activity as antagonists | –
